The term IC50 denotes the concentration that inhibits the measured activity by half.

The values that follow come from US9382208B1, “Negative allosteric modulators of metabotropic glutamate receptor 2” (Vanderbilt University, priority 2015, dated 2016).

The target of this assay is T1, rat mGlu2 (Rattus norvegicus, UniProt P31421).
T1 construct: expressed in transfected cells
Description: mGlu2 Ca2+ flux assay. It is filed as cell-based. To be noted: for IC50: Gα15 HEK293 cells stably expressing rat mGlu2, glutamate EC80 addition, read-out: rat mGlu2 IC50; for remaining activity at 30 µM: amplitude of response in the presence of 30 μM test compound as percentage of maximal response to glutamate, read-out: rat mGlu2 Glu max (%). Put shortly:
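Gα15 HEK293 cells stably expressing rat mGlu2, Fluo-4 loaded; compound added, then glutamate at EC20 after 2.3 min and EC80 afterward, calcium flux read as F/F0. Peak amplitude around EC80 addition normalized to glutamate max; IC50 by unconstrained 4-parameter fit, top concentration 30 μM.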

T1 sequence (P31421 19-872): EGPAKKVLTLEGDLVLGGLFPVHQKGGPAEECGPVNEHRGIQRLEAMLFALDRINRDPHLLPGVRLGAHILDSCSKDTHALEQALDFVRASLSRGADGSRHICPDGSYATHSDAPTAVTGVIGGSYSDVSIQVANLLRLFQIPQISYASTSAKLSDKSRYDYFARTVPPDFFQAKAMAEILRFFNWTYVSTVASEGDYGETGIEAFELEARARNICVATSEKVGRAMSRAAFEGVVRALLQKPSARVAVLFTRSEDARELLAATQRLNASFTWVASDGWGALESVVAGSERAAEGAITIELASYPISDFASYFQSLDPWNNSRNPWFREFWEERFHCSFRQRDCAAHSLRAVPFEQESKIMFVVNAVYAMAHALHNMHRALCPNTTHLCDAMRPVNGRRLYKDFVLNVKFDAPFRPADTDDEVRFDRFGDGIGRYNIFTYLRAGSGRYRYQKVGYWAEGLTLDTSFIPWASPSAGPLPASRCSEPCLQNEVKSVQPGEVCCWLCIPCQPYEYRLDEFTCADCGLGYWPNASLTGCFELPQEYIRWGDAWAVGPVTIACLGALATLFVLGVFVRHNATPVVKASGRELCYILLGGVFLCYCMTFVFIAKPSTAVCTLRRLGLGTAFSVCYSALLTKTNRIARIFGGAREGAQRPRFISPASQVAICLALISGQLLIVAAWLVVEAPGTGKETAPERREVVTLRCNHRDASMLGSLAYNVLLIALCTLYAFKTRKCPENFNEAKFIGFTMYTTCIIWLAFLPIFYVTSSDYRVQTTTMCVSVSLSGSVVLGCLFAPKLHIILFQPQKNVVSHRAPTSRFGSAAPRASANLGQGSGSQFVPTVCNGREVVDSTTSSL

For the molecule `COC1CCN(Cc2ccc3c(c2)c(=O)c(C(N)=O)cn3-c2ccc(F)cc2)CC1` [Compound 74, 1-(4-fluorophenyl)-6-((4-methoxypiperidin-1-yl)methyl)-4-oxo-1,4-dihydroquinoline-3-carboxamide], the IC50 is 1880 nM and the remaining activity at 30 µM was 1.23%.

For `N#CC1CCN(Cc2ccc3c(c2)c(=O)c(C(N)=O)cn3-c2ccc(F)cc2)CC1` [Compound 75, 6-((4-cyanopiperidin-1-yl)methyl)-1-(4-fluorophenyl)-4-oxo-1,4-dihydroquinoline-3-carboxamide], the IC50 is 735 nM and the remaining activity at 30 µM was determined as 1.02%.

On to `CS(=O)(=O)C1CCN(Cc2ccc3c(c2)c(=O)c(C(N)=O)cn3-c2ccc(F)cc2)CC1` [Compound 76, 1-(4-fluorophenyl)-6-((4-(methylsulfonyl)piperidin-1-yl)methyl)-4-oxo-1,4-dihydroquinoline-3-carboxamide], for which the IC50 is 1120 nM and the remaining activity at 30 µM worked out at 1.29%.

Regarding `NC(=O)c1cn(-c2ccc(F)cc2)c2ccc(CN3CCC(C(F)(F)F)CC3)cc2c1=O` [Compound 77, 1-(4-fluorophenyl)-4-oxo-6-((4-(trifluoromethyl)piperidin-1-yl)methyl)-1,4-dihydroquinoline-3-carboxamide], the IC50 came to 823 nM and the remaining activity at 30 µM was found to be 1.41%.

Take `NC(=O)c1cn(-c2ccc(F)cc2)c2ccc(CN3CCC(F)(F)CC3)cc2c1=O` [Compound 78, 6-((4,4-difluoropiperidin-1-yl)methyl)-1-(4-fluorophenyl)-4-oxo-1,4-dihydroquinoline-3-carboxamide]: the IC50 was 197 ± 91 nM and the remaining activity at 30 µM is 1.59 ± 0.27%.

With `CC1CN(Cc2ccc3c(c2)c(=O)c(C(N)=O)cn3-c2ccc(F)cc2)CCO1` (stereo not shown) [Compound 79, 1-(4-fluorophenyl)-6-((2-methylmorpholino)methyl)-4-oxo-1,4-dihydroquinoline-3-carboxamide], the IC50 turned out to be 328 ± 64 nM and the remaining activity at 30 µM was 1.31 ± 0.04%.

As to `CN(Cc1ccc2c(c1)c(=O)c(C(N)=O)cn2-c1ccc(F)cc1)C1CC(F)(F)C1` [Compound 80, 6-(((3,3-difluorocyclobutyl)(methyl)amino)methyl)-1-(4-fluorophenyl)-4-oxo-1,4-dihydroquinoline-3-carboxamide], the IC50 turned out to be 397 nM and the remaining activity at 30 µM amounted to 1.03%.

For the molecule `NC(=O)c1cn(-c2ccc(F)cc2)c2ccc(CN3CCN(CC(F)(F)F)CC3)cc2c1=O` [Compound 81, 1-(4-fluorophenyl)-4-oxo-6-((4-(2,2,2-trifluoroethyl)piperazin-1-yl)methyl)-1,4-dihydroquinoline-3-carboxamide], the IC50 worked out at 753 nM and the remaining activity at 30 µM stood at 1.19%.

On to `CC(=O)N1CCN(Cc2ccc3c(c2)c(=O)c(C(N)=O)cn3-c2ccc(F)cc2)CC1` [Compound 82, 6-((4-acetylpiperazin-1-yl)methyl)-1-(4-fluorophenyl)-4-oxo-1,4-dihydroquinoline-3-carboxamide], for which the IC50 was 3190 nM and the remaining activity at 30 µM came to 2.14%.

`CS(=O)(=O)N1CCN(Cc2ccc3c(c2)c(=O)c(C(N)=O)cn3-c2ccc(F)cc2)CC1` [Compound 83, 1-(4-fluorophenyl)-6-((4-(methylsulfonyl)piperazin-1-yl)methyl)-4-oxo-1,4-dihydroquinoline-3-carboxamide]: the IC50 turned out to be 694 nM and the remaining activity at 30 µM amounted to 1.47%.

In the case of `NC(=O)c1cn(-c2ccc(F)cc2)c2ccc(CN3CCS(=O)(=O)CC3)cc2c1=O` [Compound 84, 6-((1,1-dioxidothiomorpholino)methyl)-1-(4-fluorophenyl)-4-oxo-1,4-dihydroquinoline-3-carboxamide], the IC50 was determined as 1160 nM and the remaining activity at 30 µM was 2.04%.
